Values joined by “and” are separate entries in the source; they are usually repeats but may differ in a detail not shown here. Equal entries are not always repeated.
Assays:
[1] = biological target: recombinant human kappa opioid receptor (Homo sapiens, UniProt P41145); test: biochemical; settings: IC50 of inhibition of agonist-induced G protein activation
[2] = cited from earlier work
[3] = 10 mg of dezocine, postoperative patients (n=187); cited from earlier work

Sequence of recombinant human kappa opioid receptor (P41145 whole entry): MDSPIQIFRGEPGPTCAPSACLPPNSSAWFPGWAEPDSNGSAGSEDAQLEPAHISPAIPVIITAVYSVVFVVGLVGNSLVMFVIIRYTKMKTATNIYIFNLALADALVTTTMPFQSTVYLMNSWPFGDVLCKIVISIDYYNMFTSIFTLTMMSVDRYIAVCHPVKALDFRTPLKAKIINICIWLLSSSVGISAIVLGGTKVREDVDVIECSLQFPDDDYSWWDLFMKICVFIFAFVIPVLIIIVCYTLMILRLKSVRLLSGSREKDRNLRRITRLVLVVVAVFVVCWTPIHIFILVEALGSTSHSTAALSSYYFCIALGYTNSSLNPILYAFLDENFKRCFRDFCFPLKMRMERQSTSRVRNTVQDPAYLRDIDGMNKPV

Structure (SMILES): C[C@@]12CCCCC[C@@H](Cc3ccc(O)cc31)[C@@H]2N [dezocine]
- IC50 [1]: ~350 nM and ~800 nM
- decrease of anesthetic requirement [2]: up to 50%
- analgesic activity compared with meperidine [3]: same analgesic activity as 50 mg of meperidine

Reference: publication PMC3944410 (Anesthesiology, 2014)
